Results as given in patent US6780596B2, “Methods for determining the activity of complex mixtures” (Ashni Naturaceuticals, Inc., priority 1998, dated 2004).

Test system: LNCaP prostate cells
Experiment: Phosphotyrosyl protein expression in LNCaP prostate cells (SDS-PAGE, anti-phosphotyrosine immunoblot)
Assay type: cell-based, human
Conditions: for number of phosphotyrosylprotein bands decreased in staining intensity / affected: of sixteen bands in dividing LNCaP cells, 15 to 90 kDa
Excerpt: Chemicals: Anti-phosphotyrosine antibodies may be purchased from Upstate Biotechnology (Lake Placid, N.Y.). Saw palmetto (Serenoa repens) extract may be obtained from Ashland Nutritional (Irvine Calif.). All other chemicals may be purchased from Sigma Chemical Company (St. Louis, Mo.) and are the highest purity commercially available.
Human Prostate Cell Line: The LNCaP prostate cell line (CRL-1740) is useful as a model for prostate hyperplasia and may be obtained from the American Type Culture Collection (Bethesda, Md.). LNCaP cells were originally isolated from a person and are characteristic of prostatic carcinoma. They are androgen and estrogen responsive, produce prostate specific antigen (PSA), and prostatic acid phosphatase in culture.
Cell Plating: LNCaP cells may be propagated as monolayers according to the instructions of the supplier. For experiments, cells may be plated at a density of 1×10^5 cells per mL in 100 mm plates, 20 mL per plate, 3 plates per treatment. […]
On day three, a subset of control LNCaP cells is synchronized to Go by reducing the serum concentration of the medium to 0.5%. These cells are termed quiescent, resting or unstimulated LNCaP cells.
After a four-day incubation period with the test materials, the test LNCaP cells may be collected by washing plates three times with ice-cold phosphate-buffered saline, pH 7.4 (PBS) over ice, removed by scraping, pelleted by centrifugation at 4° C. The cell pellet may be lysed for 20 min. in 20 mM Tris buffer (pH 8.0) with 137 mM NaCl, 10% glycerol, 1% Nonidet P-40, 1 mM phenylmethylsulfonyl fluoride, 0.15 units/mL aprotonin, and 1 mM sodium orthovanadate while on wet ice. Cell lysates are collected after centrifugation at 30,000 rpm at 4° C. for 10 minutes to separate cellular debris from lysates.
Gel Electrophoresis: Sodium dodecyl sulfate polyacrylamide gel electrophoresis (PAGE) is performed using 10% polyacrylamide gels, as described by Laemmli, U.K. and Favre, M., 80 Journal of Molecular Biology 575-99 (1973), with the modification that the cell lysates (100 μg protein/lane) are heated at 100° C. for three minutes.
Immunoblotting: The immunoblotting is performed as described by Towbin et al., 76 Proc. Natl. Acad. Sci. USA 4350 (1979), however, a Milliblot SDE electroblot apparatus (Millipore, Bedford, Mass.), is used to transfer proteins from the polyacrylamide gels to an IMMOBILON® membrane filter. Complete transfers are accomplished in 25-30 minutes at 500 mA. Membranes used for blotting are blocked by incubating in TBS (Tris buffered saline, 50 mM Tris, 150 mM NaCl, pH 7.5) containing 5% nonfat dry milk for 30 minutes at room temperature. Phosphotyrosylproteins are visualized by incubation of the blots with the anti-phosphotyrosine antibody in TBST (0.05% Tween 20 in TBS) for two hours and then a second incubation at room temperature with alkaline phosphatase-conjugated secondary antibody diluted 1:1000 in TBST for two hours. The enzymatic reaction is developed for 15 minutes. Molecular weights of immuno-stained proteins are estimated by adding molecular weight standards to reference lanes and staining the membrane filters with amido black 10B.
Blots are translated into TIFF-formatted files with a Microtech 600GS scanner and quantified using Scan Analysis (BIOSOFT™, Cambridge, UK). Summary scans are then printed and peak heights are measured directly from figure. One density unit (Du) is defined as one mm of the resulting peak height.
Protein Determination: Spectrophotometric determination of protein concentration is determined with bicinchoninic acid as reported by Smith, et al. Measurement of protein using bicinchoninic acid. 150 ANAL. BIOCHEM. 76-85 (1985).
Statistical Analysis: Dose responses are defined as three or more consecutive doses resulting in a consistent, reproducible appearance or disappearance of a phosphotyrosylprotein in the immunoblot. […]

For `C/C1=C2/[N-][C@H]([C@H](CC(N)=O)[C@@]2(C)CCC(=O)NC[C@@H](C)OP(=O)([O-])O[C@H]2[C@@H](O)[C@@H](n3cnc4cc(C)c(C)cc43)O[C@@H]2CO)[C@]2(C)N=C(/C(C)=C3N=C(/C=C4N=C1[C@@H](CCC(N)=O)C\4(C)C)[C@@H](CCC(N)=O)[C@]\3(C)CC(N)=O)[C@@H](CCC(N)=O)[C@]2(C)CC(N)=O.[CH3-].[Co]` [methylcobalamine], the “phosphotyrosylproteins at 40 and 50 kDa” value (500 μg methylcobalamine/mL) was “faint bands”, the effective concentration (effect on phosphotyrosylprotein expression) was “approximately 500 μg/mL” and the “concentration at which the 45 kDa phosphotyrosylprotein disappears entirely” value (methylcobalamine 5, 50 or 500 μg/mL) was 500 µg/mL. For the same compound, the “number of phosphotyrosylprotein bands decreased in staining intensity / affected” value was “three”.
With `CC[C@H](CC[C@@H](C)[C@H]1CC[C@H]2[C@@H]3CC=C4C[C@@H](O)CC[C@]4(C)[C@H]3CC[C@]12C)C(C)C` [beta-sitosterol] the “phosphotyrosylproteins at 45 and 50 kDa” value (50 μg beta-sitosterol/mL) was “faint bands”, the “concentration at which the 36 and 40 kDa phosphotyrosylproteins disappear entirely” value (beta-sitosterol 5, 10 or 50 μg/mL) was 10 µg/mL and the “number of phosphotyrosylprotein bands decreased in staining intensity / affected” value was “four”.
In the case of `CC(C)(C)NC(=O)[C@H]1CC[C@H]2[C@@H]3CC[C@H]4NC(=O)C=C[C@]4(C)[C@H]3CC[C@]12C` [finasteride, Finasteride], the “40 kDa band” value (0.05 μg/mL finasteride) is reported as “barely visible”, the “tyrosylphosphorylation of the 28 and 36 kDa proteins” value (0.05 μg/mL finasteride) is reported as “completely eliminated” and the “number of phosphotyrosylprotein bands decreased in staining intensity / affected” value is reported as “three”.
With `CC(C)=CCC/C(C)=C/C=C/C(C)=C/C=C/C(C)=C/C=C/C=C(C)/C=C/C=C(C)/C=C/C=C(\C)CCC=C(C)C` [lycopene] the “concentration at which the 15, 17 and 20 kDa phosphotyrosylproteins disappear entirely” value (lowest concentration tested) was 100 ng/mL and the “number of phosphotyrosylprotein bands decreased in staining intensity / affected” value was “fourteen”.
In the case of `C[C@H]1[C@H](C)CC[C@]2(C(=O)O)CC[C@]3(C)C(=CC[C@@H]4[C@@]5(C)CC[C@H](O)C(C)(C)[C@@H]5CC[C@]43C)[C@H]12` [ursolic acid], the “concentration at which the phosphotyrosylproteins at 28, 30, 50 and 60 kDa are no longer visible” value (highest concentration tested) is reported as 5 µg/mL, the “concentration at which the 17, 20, 28 and 34 kDa phosphotyrosylproteins disappear entirely” value (lowest concentration tested) is reported as 0.5 µg/mL and the “number of phosphotyrosylprotein bands decreased in staining intensity / affected” value is reported as “ten”.
